# Target: wild-type human cardiac sodium channel, hNav1.5 (Homo sapiens, UniProt Q14524)
# Test: Late INa screening assay (late sodium current, PatchXpress whole cell patch clamp)
# Assay type: cell-based
# Conditions: compound at 10 μM; read-out: Late INa % blk
# wild-type human cardiac sodium channel, hNav1.5, sequence (Q14524 whole entry): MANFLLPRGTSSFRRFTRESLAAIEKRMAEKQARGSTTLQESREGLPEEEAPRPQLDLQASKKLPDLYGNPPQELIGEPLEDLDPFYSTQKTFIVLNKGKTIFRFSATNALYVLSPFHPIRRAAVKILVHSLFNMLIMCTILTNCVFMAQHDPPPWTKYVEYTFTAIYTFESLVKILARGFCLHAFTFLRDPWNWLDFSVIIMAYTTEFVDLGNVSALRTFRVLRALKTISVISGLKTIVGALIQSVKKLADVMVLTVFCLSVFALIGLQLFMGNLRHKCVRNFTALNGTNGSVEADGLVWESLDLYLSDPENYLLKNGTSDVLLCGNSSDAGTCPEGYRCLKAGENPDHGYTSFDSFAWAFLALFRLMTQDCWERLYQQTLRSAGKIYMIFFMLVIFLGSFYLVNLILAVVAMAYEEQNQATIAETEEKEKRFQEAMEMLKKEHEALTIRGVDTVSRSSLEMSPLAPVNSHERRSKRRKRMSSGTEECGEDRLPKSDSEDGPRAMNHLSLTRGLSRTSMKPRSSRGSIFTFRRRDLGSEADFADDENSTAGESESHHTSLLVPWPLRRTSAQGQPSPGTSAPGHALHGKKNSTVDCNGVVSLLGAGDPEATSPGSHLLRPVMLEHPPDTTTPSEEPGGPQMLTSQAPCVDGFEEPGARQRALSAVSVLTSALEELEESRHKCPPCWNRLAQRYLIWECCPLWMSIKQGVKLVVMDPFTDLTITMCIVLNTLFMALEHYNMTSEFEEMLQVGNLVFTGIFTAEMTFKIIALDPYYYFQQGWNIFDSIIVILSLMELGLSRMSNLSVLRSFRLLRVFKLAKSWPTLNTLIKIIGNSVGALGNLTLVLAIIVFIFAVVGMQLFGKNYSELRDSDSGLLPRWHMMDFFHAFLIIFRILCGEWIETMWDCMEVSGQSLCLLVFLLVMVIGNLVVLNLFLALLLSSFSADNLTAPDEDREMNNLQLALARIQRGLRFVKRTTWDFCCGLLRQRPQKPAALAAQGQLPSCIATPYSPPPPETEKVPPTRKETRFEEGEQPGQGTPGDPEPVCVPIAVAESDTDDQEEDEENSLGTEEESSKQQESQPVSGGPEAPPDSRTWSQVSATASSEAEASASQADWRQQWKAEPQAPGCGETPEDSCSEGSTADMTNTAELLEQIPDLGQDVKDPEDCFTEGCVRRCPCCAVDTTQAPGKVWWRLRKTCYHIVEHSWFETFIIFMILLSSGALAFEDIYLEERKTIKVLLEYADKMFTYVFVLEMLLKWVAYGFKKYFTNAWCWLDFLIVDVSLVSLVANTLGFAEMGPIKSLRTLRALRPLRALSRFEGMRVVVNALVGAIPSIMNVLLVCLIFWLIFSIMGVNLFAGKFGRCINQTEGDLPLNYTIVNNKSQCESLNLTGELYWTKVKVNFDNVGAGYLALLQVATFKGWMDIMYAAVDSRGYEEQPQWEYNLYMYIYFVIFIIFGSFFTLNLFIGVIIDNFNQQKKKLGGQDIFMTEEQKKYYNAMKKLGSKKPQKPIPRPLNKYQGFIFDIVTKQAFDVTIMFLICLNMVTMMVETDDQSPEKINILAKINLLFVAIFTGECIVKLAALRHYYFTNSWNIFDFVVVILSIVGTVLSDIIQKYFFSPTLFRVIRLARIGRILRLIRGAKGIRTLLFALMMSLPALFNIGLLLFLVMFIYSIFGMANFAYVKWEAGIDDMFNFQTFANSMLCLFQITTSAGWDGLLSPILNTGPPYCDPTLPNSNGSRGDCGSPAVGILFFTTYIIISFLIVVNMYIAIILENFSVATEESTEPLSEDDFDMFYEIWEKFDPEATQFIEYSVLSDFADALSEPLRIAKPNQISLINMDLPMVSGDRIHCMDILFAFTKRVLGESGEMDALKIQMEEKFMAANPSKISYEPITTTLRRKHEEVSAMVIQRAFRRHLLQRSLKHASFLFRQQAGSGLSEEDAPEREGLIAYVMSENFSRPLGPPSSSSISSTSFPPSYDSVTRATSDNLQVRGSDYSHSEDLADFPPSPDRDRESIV
row,Structure (SMILES),inhibition at 10 µM [%]
1,"CCOC(=O)C1=C(C)NC2=C(C(=O)CCC2)C1c1ccc(OC)c2ccc(OC)cc12 (stereo not drawn) [PT-138, ethyl 4-(4,7-dimethoxynaphthalen-1-yl)-2-methyl-5-oxo-1,4,5,6,7,8-hexahydroquinoline-3-carboxylate]",34.1
2,"CCOC(=O)C1=C(C)NC2=C(C(=O)CCC2)C1c1ccc(N(C)C)c2ccccc12 (stereo not drawn) [PT-139, ethyl 4-(4-(dimethylamino)naphthalen-1-yl)-2-methyl-5-oxo-1,4,5,6,7,8-hexahydroquinoline-3-carboxylate]",21.8
3,"CCOC(=O)C1=C(C)NC2=C(C(=O)CCC2(C)C)C1c1ccc(Cl)s1 (stereo not drawn) [PT-146, ethyl 4-(5-chlorothiophen-2-yl)-2,8,8-trimethyl-5-oxo-1,4,5,6,7,8-hexahydroquinoline-3-carboxylate]",31.2
4,"CCCC1=C(C(=O)OCC)C(c2ccsc2)C2=C(CCCC2=O)N1 (stereo not drawn) [PT-148, ethyl 5-oxo-2-propyl-4-(thiophen-3-yl)-1,4,5,6,7,8-hexahydroquinoline-3-carboxylate]",7.6
5,"CCCC1=C(C(=O)OCC)C(c2ccsc2)C2=C(CC(C)(C)CC2=O)N1 (stereo not drawn) [PT-151, ethyl 7,7-dimethyl-5-oxo-2-propyl-4-(thiophen-3-yl)-1,4,5,6,7,8-hexahydroquinoline-3-carboxylate]",35
6,"CCCC1=C(C(=O)OCC)C(c2ccsc2)C2=C(CC(C(C)C)CC2=O)N1 (stereo not drawn) [PT-152, ethyl 7-isopropyl-5-oxo-2-propyl-4-(thiophen-3-yl)-1,4,5,6,7,8-hexahydroquinoline-3-carboxylate]",41.2
7,"COCCOC(=O)C1=C(C)NC2=C(C(=O)CC(C)(C)C2)C1c1ccc(Oc2ccccc2)cc1 (stereo not drawn) [PT-156, 2-methoxyethyl 2,7,7-trimethyl-5-oxo-4-(4-phenoxyphenyl)-1,4,5,6,7,8-hexahydroquinoline-3-carboxylate]",36.6
8,"CC1=C(C(=O)OC(C)C)C(c2cccc3ccccc23)C2=C(CCCC2=O)N1 (stereo not drawn) [PT-158, isopropyl 2-methyl-4-(naphthalen-1-yl)-5-oxo-1,4,5,6,7,8-hexahydroquinoline-3-carboxylate]",38.7
9,"CC1=C(C(=O)OC(C)C)C(c2cc(-c3ccccc3)cs2)C2=C(CC(C)(C)CC2=O)N1 (stereo not drawn) [PT-159, isopropyl 2,7,7-trimethyl-5-oxo-4-(4-phenylthiophen-2-yl)-1,4,5,6,7,8-hexahydroquinoline-3-carboxylate]",46.3
10,"CC1=C(C(=O)OC(C)C)C(c2cnn(-c3ccccc3C)c2C)C2=C(CC(C)(C)CC2=O)N1 (stereo not drawn) [PT-161, isopropyl 2,7,7-trimethyl-4-(5-methyl-1-o-tolyl-1H-pyrazol-4-yl)-5-oxo-1,4,5,6,7,8-hexahydroquinoline-3-carboxylate]",6.8
11,"CC1=C(C(=O)N2CCN(c3ccc(Cl)cc3)CC2)C(c2ccsc2)C2=C(CCCC2=O)N1 (stereo not drawn) [PT-167, 3-(4-(4-chlorophenyl)piperazine-1-carbonyl)-2-methyl-4-(thiophen-3-yl)-4,6,7,8-tetrahydroquinolin-5(1H)-one]",-10
12,"CC1=C(C(=O)N2CCC(c3ccccc3)CC2)C(c2ccc3ccccc3c2)C2=C(CCCC2=O)N1 (stereo not drawn) [PT-169, 2-methyl-4-(naphthalen-2-yl)-3-(4-phenylpiperidine-1-carbonyl)-4,6,7,8-tetrahydroquinolin-5(1H)-one]",11.8
13,"CC1=C(C(=O)N2CCC(c3ccccc3)CC2)C(c2cccc3ccccc23)C2=C(CCCC2=O)N1 (stereo not drawn) [PT-170, 2-methyl-4-(naphthalen-1-yl)-3-(4-phenylpiperidine-1-carbonyl)-4,6,7,8-tetrahydroquinolin-5(1H)-one]",9.8
14,"CC1=C(C(=O)N2CCc3ccccc3C2)C(c2cccc3ccccc23)C2=C(CCCC2=O)N1 (stereo not drawn) [PT-171, 2-methyl-4-(naphthalen-1-yl)-3-(1,2,3,4-tetrahydroisoquinoline-2-carbonyl)-4,6,7,8-tetrahydroquinolin-5(1H)-one]",20.2
15,"CC1=C(C(=O)N2CCC(c3cccc(C(=O)O)c3)CC2)C(c2cccc3ccccc23)C2=C(CCCC2=O)N1 (stereo not drawn) [PT-172, 3-(1-(2-methyl-4-(naphthalen-1-yl)-5-oxo-1,4,5,6,7,8-hexahydroquinoline-3-carbonyl)piperidin-4-yl)benzoic acid]",16.3
16,"CCCC1=C(C(=O)OCC)C(c2ccc(Br)s2)C(C(=O)OCC)=C(CCC)N1 [PT-182, diethyl 4-(5-bromothiophen-2-yl)-2,6-dipropyl-1,4-dihydropyridine-3,5-dicarboxylate]",33
17,"CCOC(=O)C1=C(C)NC2=C(C(=O)c3ccccc32)C1c1cccs1 (stereo not drawn) [PT-187, ethyl 2-methyl-5-oxo-4-(thiophen-2-yl)-4,5-dihydro-1H-indeno[1,2-b]pyridine-3-carboxylate]",-2.6

row,Structure (SMILES),inhibition at 10 µM [%]
1,"CCOC(=O)C1=C(C)NC2=C(C(=O)CCC2)C1c1cc2cc(OC)ccc2nc1Cl (stereo not drawn) [PT-188, ethyl 2-chloro-6-methoxy-2′-methyl-5′-oxo-1′,4′,5′,6′,7′,8′-hexahydro-3,4′-biquinoline-3′-carboxylate]",-0.8
2,"CCOC(=O)C1=C(C)NC2=C(C(=O)CCC2)C1c1cccnc1Cl (stereo not drawn) [PT-189, ethyl 4-(2-chloropyridin-3-yl)-2-methyl-5-oxo-1,4,5,6,7,8-hexahydroquinoline-3-carboxylate]",0.5
3,"CC1=C(C(=O)OCc2ccccc2)C(c2ccc3ccccc3n2)n2nnnc2N1 (stereo not drawn) [PT-196, benzyl 5-methyl-7-(quinolin-2-yl)-4,7-dihydrotetrazolo[1,5-a]pyrimidine-6-carboxylate]",32.5
4,"CC1=C(C(=O)OCc2ccccc2)C(c2ccnc3ccccc23)n2nnnc2N1 (stereo not drawn) [PT-197, benzyl 5-methyl-7-(quinolin-4-yl)-4,7-dihydrotetrazolo[1,5-a]pyrimidine-6-carboxylate]",21.5
5,"COc1ccc(-c2ccc(COC(=O)C3=C(C)Nc4nnnn4C3c3cccc4ccccc34)cc2)cc1 (stereo not drawn) [PT-199, (4′-methoxybiphenyl-4-yl)methyl 5-methyl-7-(naphthalen-1-yl)-4,7-dihydrotetrazolo[1,5-a]pyrimidine-6-carboxylate]",20.3
6,"COC(=O)c1ccc(-c2ccc(COC(=O)C3=C(C)Nc4nnnn4C3c3cccc4ccccc34)cc2)cc1 (stereo not drawn) [PT-200, (4′-(methoxycarbonyl)biphenyl-4-yl)methyl 5-methyl-7-(naphthalen-1-yl)-4,7-dihydrotetrazolo[1,5-a]pyrimidine-6-carboxylate]",7.4
7,"CCOC(=O)C1=C(C)Nc2nnnn2C1c1ccc(C2C(C(=O)OCC)=C(C)Nc3nnnn32)cc1 (stereo not drawn) [PT-201, diethyl 7,7′-(1,4-phenylene)bis(5-methyl-4,7-dihydrotetrazolo[1,5-a]pyrimidine-6-carboxylate)]",7.8
8,"CCOC(=O)C1=C(C)Nc2nnnn2C1c1cccc(C2C(C(=O)OCC)=C(C)Nc3nnnn32)c1 (stereo not drawn) [PT-202, diethyl 7,7′-(1,3-phenylene)bis(5-methyl-4,7-dihydrotetrazolo[1,5-a]pyrimidine-6-carboxylate)]",9.7
9,"CC1=C(c2nnc(-c3ccccc3)o2)C(c2cccc3ccccc23)n2nnnc2N1 (stereo not drawn) [PT-203, 2-(5-methyl-7-(naphthalen-1-yl)-4,7-dihydrotetrazolo[1,5-a]pyrimidin-6-yl)-5-phenyl-1,3,4-oxadiazole]",10.9
10,"O=C1OCC(O)=C1C(C1=C(O)COC1=O)c1cccc2ccccc12 [PT-222, 3,3′-(naphthalen-1-ylmethylene)bis(4-hydroxyfuran-2(5H)-one)]",15.8
11,"CC1=C(C(=O)OCc2ccccc2)[C@@H](c2ccccc2-c2ccc(C(F)(F)F)cc2)n2nnnc2N1 [PT-236, (R)-benzyl 5-methyl-7-(4′-(trifluoromethyl)biphenyl-2-yl)-4,7-dihydrotetrazolo[1,5-a]pyrimidine-6-carboxylate]",68
12,"CC1=C(C(=O)OCc2ccccc2)[C@@H](c2ccccc2-c2cccc(C(N)=O)c2)n2nnnc2N1 [PT-238, (R)-benzyl 7-(3′-carbamoylbiphenyl-2-yl)-5-methyl-4,7-dihydrotetrazolo[1,5-a]pyrimidine-6-carboxylate]",49.9
13,"CC1=C(C(=O)OCc2ccccc2)[C@@H](c2ccccc2-c2cccc(C#N)c2)n2nnnc2N1 [PT-239, (R)-benzyl 7-(3′-cyanobiphenyl-2-yl)-5-methyl-4,7-dihydrotetrazolo[1,5-a]pyrimidine-6-carboxylate]",94.8
14,"CC1=C(C(=O)OCc2ccccc2)[C@@H](c2ccccc2-c2cccc(F)c2)n2nnnc2N1 [PT-240, (R)-benzyl 7-(3′-fluorobiphenyl-2-yl)-5-methyl-4,7-dihydrotetrazolo[1,5-a]pyrimidine-6-carboxylate]",85
15,"COc1cccc(-c2ccccc2[C@@H]2C(C(=O)OCc3ccccc3)=C(C)Nc3nnnn32)c1 [PT-241, (R)-benzyl 7-(3′-methoxybiphenyl-2-yl)-5-methyl-4,7-dihydrotetrazolo[1,5-a]pyrimidine-6-carboxylate]",77.1
16,"CC1=C(C(=O)OCc2ccccc2)[C@@H](c2ccccc2-c2ccc(C(N)=O)cc2)n2nnnc2N1 [PT-242, (R)-benzyl 7-(4′-carbamoylbiphenyl-2-yl)-5-methyl-4,7-dihydrotetrazolo[1,5-a]pyrimidine-6-carboxylate]",11
17,"CC1=C(C(=O)OCc2ccccc2)[C@@H](c2ccccc2-c2ccc(C#N)cc2)n2nnnc2N1 [PT-243, (R)-benzyl 7-(4′-cyanobiphenyl-2-yl)-5-methyl-4,7-dihydrotetrazolo[1,5-a]pyrimidine-6-carboxylate]",91.5

# Same assay, conditions: read-out: Late INa % blk
row,Structure (SMILES),inhibition at 10 µM [%]
1,"c1ccc2c(c1)CCC1=C2C(c2cccc3ccccc23)n2nnnc2N1 (stereo not drawn) [PT-198, 12-(naphthalen-1-yl)-5,6,7,12-tetrahydrobenzo[f]tetrazolo[5,1-b]quinazoline]",50.9

# Same assay, conditions: result in words
row,Structure (SMILES),effect on late sodium current
1,"CC1=C(C(=O)N2CCN(c3ccccc3)CC2)C(c2ccsc2)C2=C(CCCC2=O)N1 (stereo not drawn) [PT-166, 2-methyl-3-(4-phenylpiperazine-1-carbonyl)-4-(thiophen-3-yl)-4,6,7,8-tetrahydroquinolin-5(1H)-one]",potentiated late sodium current

# Reference: US20090012103A1, “SUBSTITUTED HETEROCYCLIC COMPOUNDS” (priority 2007, published 2009)
